In ChEMBL document CHEMBL1143834, “Activity of Garenoxacin against Macrolide-Susceptible and -Resistant Mycoplasma pneumoniae” (2007):
Values after ≈ are worked out from the molar mass of the structure shown.

Tests used:
Format in all cases: functional
[1] = tested on: Mycoplasmoides pneumoniae; assay: Antimicrobial activity against macrolide-susceptible Mycoplasma pneumoniae M129
[2] = tested on: Mycoplasmoides pneumoniae; assay: Antimicrobial activity against macrolide-resistant Mycoplasma pneumoniae with 23S rRNA A2064G mutant isolate 2
[3] = tested on: Mycoplasmoides pneumoniae; assay: Antimicrobial activity against macrolide-susceptible Mycoplasma pneumoniae Mac
[4] = tested on: Mycoplasmoides pneumoniae; assay: Antimicrobial activity against macrolide-resistant Mycoplasma pneumoniae with 23S rRNA A2064G mutant isolate 4
[5] = tested on: Mycoplasmoides pneumoniae; assay: Antimicrobial activity against macrolide-resistant Mycoplasma pneumoniae with 23S rRNA A2063G mutant isolate 1
[6] = tested on: Mycoplasmoides pneumoniae; assay: Antimicrobial activity against macrolide-susceptible Mycoplasma pneumoniae FH
[7] = tested on: Mycoplasmoides pneumoniae; assay: Antimicrobial activity against macrolide-resistant Mycoplasma pneumoniae with 23S rRNA A2063G mutant isolate 6

| SMILES | MIC [1] | MIC [2] | MIC [3] | MIC [4] | MIC [5] | MIC [6] | MIC [7] |
| --- | --- | --- | --- | --- | --- | --- | --- |
| C[C@H]1NCc2cc(-c3ccc4c(=O)c(C(=O)O)cn(C5CC5)c4c3OC(F)F)ccc21 [GARENOXACIN] | 0.016 µg/mL (≈ 0.0375 µM) | 0.016 µg/mL (≈ 0.0375 µM) | 0.016 µg/mL (≈ 0.0375 µM) | 0.016 µg/mL (≈ 0.0375 µM) | 0.016 µg/mL (≈ 0.0375 µM) | 0.016 µg/mL (≈ 0.0375 µM) | 0.031 µg/mL (≈ 0.0727 µM) |
| COc1c(N2CCNC(C)C2)c(F)cc2c(=O)c(C(=O)O)cn(C3CC3)c12 (stereo not given) [GATIFLOXACIN] | 0.063 µg/mL (≈ 0.168 µM) | 0.063 µg/mL (≈ 0.168 µM) | 0.063 µg/mL (≈ 0.168 µM) | 0.031 µg/mL (≈ 0.0826 µM) | 0.031 µg/mL (≈ 0.0826 µM) | 0.063 µg/mL (≈ 0.168 µM) | 0.063 µg/mL (≈ 0.168 µM) |
| CN(C)c1ccc(O)c2c1C[C@H]1C[C@H]3[C@H](N(C)C)C(O)=C(C(N)=O)C(=O)[C@@]3(O)C(O)=C1C2=O [MINOCYCLINE] | 0.25 µg/mL (≈ 0.546 µM) | 0.25 µg/mL (≈ 0.546 µM) | 0.25 µg/mL (≈ 0.546 µM) | 0.25 µg/mL (≈ 0.546 µM) | 0.25 µg/mL (≈ 0.546 µM) | 0.5 µg/mL (≈ 1.09 µM) | 0.25 µg/mL (≈ 0.546 µM) |
| C[C@H]1COc2c(N3CCN(C)CC3)c(F)cc3c(=O)c(C(=O)O)cn1c23.C[C@H]1COc2c(N3CCN(C)CC3)c(F)cc3c(=O)c(C(=O)O)cn1c23.O [LEVOFLOXACIN] | 0.25 µg/mL | 0.25 µg/mL | 0.25 µg/mL | 0.25 µg/mL | 0.25 µg/mL | 0.5 µg/mL | 0.5 µg/mL |
| CC[C@H]1OC(=O)[C@H](C)[C@@H](O[C@H]2C[C@@](C)(OC)[C@@H](O)[C@H](C)O2)[C@H](C)[C@@H](O[C@@H]2O[C@H](C)C[C@H](N(C)C)[C@H]2O)[C@](C)(OC)C[C@@H](C)C(=O)[C@H](C)[C@@H](O)[C@]1(C)O [CLARITHROMYCIN] | 0.002 µg/mL (≈ 0.00267 µM) | 8 µg/mL (≈ 10.7 µM) | 0.002 µg/mL (≈ 0.00267 µM) | 8 µg/mL (≈ 10.7 µM) | 32 µg/mL (≈ 42.8 µM) | 0.004 µg/mL (≈ 0.00535 µM) | 32 µg/mL (≈ 42.8 µM) |
